# According to patent US9309314B2, “Polypeptides, nucleic acids and uses thereof” (AGENCY FOR SCIENCE, TECHNOLOGY AND RESEARCH (A*STAR), priority 2013, dated 2016):
# “Also recorded” adds a separate entry of the source.
# Experiments:
# [1] = system: atherosclerosis; test: Atherosclerosis (APELIN publication repeated with ELABELA); conditions: mouse, in vivo
# Description: J Clin Invest 2008; 118:3343-54.
# The experiments described in the above publication are repeated, with the replacement of APELIN with ELABELA.
# [2] = system: primary human fibroblasts; test: Growth and survival of primary fibroblasts with recombinant ELA; assay type: cell-based; conditions: primary fibroblast cells
# Procedure: (§1) Primary human fibroblasts, SW1353 chondrosarcoma (ATCC) and NTERA2 hECs (a gift from Barbara Knowles and Davor Solter) were grown in Dulbecco's modified Eagle's medium (DMEM) with 10% FBS (Hyclone), 2 mM GlutaMAX™ (Invitrogen) and 1 mM sodium pyruvate.
# (§2) For xCELLigence real time growth assays, 4000 cells were plated per well of an E-plate (ACEA Biosciences) with media changes every 48 hours.
# (§3) Recombinant ELA was added at 2.5 uM (or 10 μg/ml). Cell cycle studies were performed with Click-iT EDU staining kit (Invitrogen) and by performing a double thymidine block (2.5 mM thymidine; 16 hour block, 8 hour release, 16 hour block) followed by DAPI staining for DNA content at the indicated times following release.
# [3] = system: SSEA3 and TRA-1-60; test: FACs of stem cell surface markers in ELA-treated hESCs; assay type: cell-based, human; conditions: hESCs treated with recombinant ELA
# [4] = system: myocardial infarction; test: Coronary artery disease / myocardial infarction (APELIN publications repeated with ELABELA); assay type: in vivo, rat
# Description: Peptides 2013; 46:76-82. • Li L, Zeng H, Chen J X. Apelin-13 increases myocardial progenitor cells and improves repair postmyocardial infarction. Am J Physiol Heart Circ Physiol 2012; 303:H605-18. • Pisarenko O I, Serebryakova L I, Pelogeykina Y A, et al. In vivo reduction of reperfusion injury to the heart with apelin-12 peptide in rats. Bull Exp Biol Med 2011; 152:79-82.
# [5] = system: human chondrosarcoma cell line; test: Growth and survival of chondrosarcoma cells with recombinant ELA; assay type: cell-based; conditions: unipotent human chondrosarcoma cells
# Procedure: as §1, §2, §3
# [6] = system: pulmonary arterial hypertension; test: Pulmonary arterial hypertension (APELIN publications repeated with ELABELA); conditions: in vivo
# Description: J Clin Invest 2011; 121:3735-46.
# Am J Physiol Heart Circ Physiol 2009; 296:H2007-14.
# [7] = system: HIV-1
# [8] = system: erectile function; test: Erectile dysfunction (APELIN publication repeated with ELABELA); conditions: mouse, in vivo
# Description: J Sex Med. 2013 Apr. 11. doi: 10.1111/jsm.12158.
# [9] = system: blood pressure; test: Hypertension (APELIN publications repeated with ELABELA); conditions: in vivo
# Description: Regulatory Peptides. 2001; 99(2-3):87-92. • Cheng X, Cheng X S, Pang C C. […] European Journal of Pharmacology. […] Journal of the American College of Cardiology. 2008; 52(11):908-913.
# [10] = system: myocardial ischaemia-reperfusion injury; test: Myocardial ischaemia-reperfusion injury (APELIN publications repeated with ELABELA); assay type: in vivo; conditions: administered during reperfusion
# Description: Peptides 2009; 30:1144-52. • Simpkin J C, Yellon D M, Davidson S M, Lim S Y, Wynne A M, Smith C C. […] Basic Res Cardiol 2007; 102:518-28.
# [11] = system: heart failure; test: Heart failure (APELIN publications repeated with ELABELA); conditions: in vivo
# Description: Nature 2012 Aug. […] J Clin Invest. 2013 Nov. 1.
# [12] = system: hESCs; test: Directed endoderm differentiation of hESCs (SOX17+ cell count); assay type: cell-based, human; conditions: 2.5 uM ELA peptide up to day 3
# Procedure: Shef4TetR5-shELA and Shef4TetR5-shβ2M cells were cultured in the presence (shELA and shβ2M respectively) or absence (Control) of 20 ng/ml doxycycline for 1 passage (4 days) and dissociated with Accutase. […] 24 hours later, the media was changed to Endo differentiation media 1 [RPMI 1640 (Gibco), 1X B-27 supplement (Invitrogen), 50 ng/ml of Activin A (R&D Systems), 25 ng/ml BMP4 (R&D Systems) and 50 ng/ml bFGF (Invitrogen)] for 3 days. On day 3, the media was changed to Endo differentiation media 2 (RPMI 1640, B27, 50 ng/ml Activin) for 2 more days of culture. Rescue experiments were performed by adding 2.5 uM of ELA peptide to Shef4TetR5-shELA concurrently with doxycycline up to day 3, when the ELA peptide is no longer necessary as judged by downregulation of endogenous ELA.
# On day 5, cells were fixed with 4% paraformaldehyde and stained with α SOX17 (AF1924, R&D Systems) and DAPI. For each well, three different randomly selected fields were imaged and the number of nuclei staining positive of SOX17 and DAPI were counted using a custom macro in ImageJ. A minimum of two wells per condition was used for each experiment, and a minimum of two independent experiments were performed to generate the results.
# [13] = system: hESCs; test: hESC growth assays (cell counts, colony size, xCELLigence real time cell index); assay type: cell-based, human
# Procedure: Feeder-free hESCs were cultured in clumps in mTSER1 (Stem Cell Technologies) on Matrigel (BD 354277).
# hESCs were dissociated into single cells using Accutase (Stem Cell Technologies) and plated in the presence of 10 μM Y-27632 (ROCK inhibitor) for 12 hours (Watanabe et al., 2007).
# as §2, §3
# [14] = system: hESCs; test: Uptake of FITC-labeled recombinant ELA by hESCs (immunofluorescence); assay type: cell-based, human; conditions: peptide labeled with FITC
# [15] = system: hESCs; test: Embryoid body differentiation of ELA-treated hESCs (qPCR); assay type: cell-based, human
# Procedure: Embryoid body differentiation was performed by plating 1 million cells per well of an Aggrewell 400 plate in Aggrewell Medium (Stem Cell Technologies) followed by harvesting and replating into low-adhesion plates (Corning).
# (§4) After the indicated time periods, embryoid bodies were harvested and RNA extracted using RNeasy kit […]. qPCR reactions were carried out using either Universal FastStart SYBR Green Mastermix (Roche) or using the Universal Probe Library system (Roche) in tandem with Taqman Fast Mastermix (Invitrogen). Primer sequences can be found in Table E1.
# [16] = system: hECs; test: Growth and survival of hECs with recombinant ELA; assay type: cell-based, human; conditions: multipotent hECs
# Procedure: as §1, §2, §3
# [17] = system: other tested cell types; test: Cellular uptake of recombinant ELA in other tested cell types; assay type: cell-based; conditions: other tested cell types than hESCs
# [18] = system: mesendodermal genes including GATA6, GATA4, FOXA2, EOMES and BRA; test: qPCR of mesendodermal markers in hESCs; assay type: cell-based, human
# Procedure: as §4
# [19] = system: shELA hESCs; test: Rescue of growth of shELA hESCs by exogenous peptide; assay type: cell-based, human; conditions: addition of recombinant peptide
# Procedure: as §2, §3
# To generate stable inducible knockdown of ELA in hESCs, the sequence […] (SEQ ID NO: 132) targeting the 3′UTR of ELA was cloned into pSUPERIOR (Oliogoengine) and nucleofected (Lonza) into Shef4TetR5 hESCs (Zafarana et al., 2009). Neomycin-resistant cells were clonally expanded and assayed for doxycycline (20 ng/ml)-inducible knockdown. Data from one representative clone (Shef4TetR5 shELA) are shown in this paper. Shef4TetR5 shβ2M were derived as previously described (Zafarana et al., 2009). Unless otherwise stated, ELA knockdown was induced on Day −4 with 20 ng/ml doxycycline to generate shELA cells.
sequence,measurement,setting,value
"QRPVNLTMRRKLRKHNCLQRRCMPLHSRVPFP (listed as Homo sapiens) [ELA, synthetically produced recombinant mature human ELABELA, a 32 amino-acid peptide hormone]",Ang II-mediated increase in atherosclerosis burden,[1],mitigates the Ang II-mediated increase in atherosclerosis burden
same,abdominal aortic aneurysm formation and rupture,[1],inhibit abdominal aortic aneurysm formation and rupture
same,protection against atherosclerosis,[1],can protect against atherosclerosis
same,pro-growth and survival properties,[2],not seen; also recorded: exerted activity only on hESCs cultures
same,levels of cell surface markers SSEA3 and TRA-1-60,[3],do not lose; also recorded: unchanged levels
same,myocardial infarction size and damage to cardiomyocytes,[4]; injection,limit the myocardial infarction size and reduce damage to cardiomyocytes
same,angiogenesis and cardiac repair postmyocardial infarction,"[4]; rat, in vivo",promote angiogenesis and ameliorate cardiac repair postmyocardial infarction
same,pro-growth and survival properties,[5],not seen; also recorded: exerted activity only on hESCs cultures
same,symptoms of pulmonary arterial hypertension,[6],alleviates symptoms of pulmonary arterial hypertension
same,HIV-1 entry,[7],prevents or slows-down HIV-1 entry
same,erectile function,[8],significant restoration of erectile function
same,blood pressure,[9],causes a reduction in blood pressure
same,infarct size,[10],significantly decrease infarct size
same,protection against heart failure,[11],able to provide protection against heart failure
same,rescue of endoderm differentiation of shELA hESCs,[12],entirely rescued; also recorded: sufficient to rescue
same,growth of hESCs by cell numbers,"[13]; FIG. 3C, relative to untreated hESCs",increased growth
same,survival of hESCs,"[13]; FIG. 3D, relative to untreated hESCs",increased survival
same,concentration range in which the recombinant peptide is bioactive,"[13]; hESCs, endogenous ELA in conditioned media is in the nM range",μM range
same,uptake by hESCs,[14],rapidly up-taken; also recorded: rapidly taken up
same,lineage commitment during embryoid body differentiation,[15],can differentiate into all three germ layers; also recorded: not biased towards mesoderm or endoderm lineages
same,pro-growth and survival properties,[16],not seen; also recorded: exerted activity only on hESCs cultures
same,rapid cellular uptake,[17],not in other tested cell types
same,expression of mesendodermal markers,[18],significantly higher levels of mesendodermal markers; also recorded: consistently upregulated
same,rescue of the growth of shELA hESCs,[19],sufficient to rescue; also recorded: entirely rescued to normal levels
